Reference: paper PMC5656653, “Evaluation of Ga-DOTA-(D-Asp)n as bone imaging agents: D-aspartic acid peptides as carriers to bone” (Scientific Reports, 2017)
Where two headings read alike, the source gives them in different places. Blank lines part the entries; values can stand above or below the molecule they belong to. Where a SMILES comes first, the peptide text is derived from it. [ ]: non-standard residue; d: D form. The star is where a group is joined. DOTA = O=C(O)CN1CCN(CC(=O)O)CCN(CC(=O)*)CCN(CC(=O)O)CC1

Test: Biodistribution experiments in normal mice after i.v. injection
Assay type: in vivo
Settings: for tissue uptake dose at 10 min / tissue uptake dose at 1 h / tissue uptake dose at 3 h: male, ddY, total radioactivity
Method in brief: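 Male ddY mice (6 weeks, 27–32 g) received tracer i.v. (37–740 kBq/100 μL); 4–5 per group sacrificed at 10, 60 and 180 min. Weighed tissues and whole left femur (bone) gamma-counted with background and decay correction.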

[1] = mouse, in vivo, iv, Biodistribution of radioactivity, Blood
[2] = mouse, in vivo, iv, Biodistribution of radioactivity, Bone (Femur)
[3] = mouse, in vivo, iv, Biodistribution of radioactivity, Brain
[4] = mouse, in vivo, iv, Biodistribution of radioactivity, Heart
[5] = mouse, in vivo, iv, Biodistribution of radioactivity, Kidney
[6] = mouse, in vivo, iv, Biodistribution of radioactivity, Large-intestine
[7] = mouse, in vivo, iv, Biodistribution of radioactivity, Liver
[8] = mouse, in vivo, iv, Biodistribution of radioactivity, Lung
[9] = mouse, in vivo, iv, Biodistribution of radioactivity, Muscle
[10] = mouse, in vivo, iv, Biodistribution of radioactivity, Pancreas
[11] = mouse, in vivo, iv, Biodistribution of radioactivity, Small-intestine
[12] = mouse, in vivo, iv, Biodistribution of radioactivity, Spleen
[13] = mouse, in vivo, iv, Biodistribution of radioactivity, Stomach

Compound: O=C(O)C[C@@H](NC(=O)[C@@H](CC(=O)O)NC(=O)[C@@H](CC(=O)O)NC(=O)[C@@H](CC(=O)O)NC(=O)[C@@H](CC(=O)O)NC(=O)[C@@H](CC(=O)O)NC(=O)[C@@H](CC(=O)O)NC(=O)[C@@H](CC(=O)O)NC(=O)[C@@H](CC(=O)O)NC(=O)[C@@H](CC(=O)O)NC(=O)[C@@H](CC(=O)O)NC(=O)CN1CCN(CC(=O)O)CCN(CC(=O)O)CCN(CC(=O)O)CC1)C(=O)O [^67Ga-DOTA-(D-Asp)11, metal not drawn] ({DOTA}-[dD][dD][dD][dD][dD][dD][dD][dD][dD][dD][dD]-OH)
- tissue uptake dose at 10 min (mouse, in vivo, iv, mice, i.v., 10 min after injection, mean (SD), footnote b, read-out: Biodistribution of radioactivity, Stomach): 0.18 %ID
- tissue uptake dose at 10 min (mouse, in vivo, iv, mice, i.v., 10 min after injection, mean (SD), read-out: Biodistribution of radioactivity, Blood): 1.71 %ID
- tissue uptake dose at 10 min (mouse, in vivo, iv, mice, i.v., 10 min after injection, mean (SD), read-out: Biodistribution of radioactivity, Bone (Femur)): 11.9 %ID
- tissue uptake dose at 10 min (mouse, in vivo, iv, mice, i.v., 10 min after injection, mean (SD), read-out: Biodistribution of radioactivity, Brain): 0.05 %ID
- tissue uptake dose at 10 min (mouse, in vivo, iv, mice, i.v., 10 min after injection, mean (SD), read-out: Biodistribution of radioactivity, Heart): 0.65 %ID
- tissue uptake dose at 10 min (mouse, in vivo, iv, mice, i.v., 10 min after injection, mean (SD), read-out: Biodistribution of radioactivity, Kidney): 12.8 %ID
- tissue uptake dose at 10 min (mouse, in vivo, iv, mice, i.v., 10 min after injection, mean (SD), read-out: Biodistribution of radioactivity, Large-intestine): 0.28 %ID
- tissue uptake dose at 10 min (mouse, in vivo, iv, mice, i.v., 10 min after injection, mean (SD), read-out: Biodistribution of radioactivity, Liver): 0.51 %ID
- tissue uptake dose at 10 min (mouse, in vivo, iv, mice, i.v., 10 min after injection, mean (SD), read-out: Biodistribution of radioactivity, Lung): 1.24 %ID
- tissue uptake dose at 10 min (mouse, in vivo, iv, mice, i.v., 10 min after injection, mean (SD), read-out: Biodistribution of radioactivity, Muscle): 0.58 %ID
- tissue uptake dose at 10 min (mouse, in vivo, iv, mice, i.v., 10 min after injection, mean (SD), read-out: Biodistribution of radioactivity, Pancreas): 0.53 %ID
- tissue uptake dose at 10 min (mouse, in vivo, iv, mice, i.v., 10 min after injection, mean (SD), read-out: Biodistribution of radioactivity, Small-intestine): 0.38 %ID
- tissue uptake dose at 10 min (mouse, in vivo, iv, mice, i.v., 10 min after injection, mean (SD), read-out: Biodistribution of radioactivity, Spleen): 0.44 %ID
- tissue uptake dose at 1 h (mouse, in vivo, iv, mice, i.v., 60 min after injection, mean (SD), footnote b, read-out: Biodistribution of radioactivity, Stomach): 0.04 %ID
- tissue uptake dose at 1 h (mouse, in vivo, iv, mice, i.v., 60 min after injection, mean (SD), read-out: Biodistribution of radioactivity, Blood): 0.14 %ID
- tissue uptake dose at 1 h (mouse, in vivo, iv, mice, i.v., 60 min after injection, mean (SD), read-out: Biodistribution of radioactivity, Bone (Femur)): 15.3 %ID
- tissue uptake dose at 1 h (mouse, in vivo, iv, mice, i.v., 60 min after injection, mean (SD), read-out: Biodistribution of radioactivity, Brain): 0.01 %ID
- tissue uptake dose at 1 h (mouse, in vivo, iv, mice, i.v., 60 min after injection, mean (SD), read-out: Biodistribution of radioactivity, Heart): 0.04 %ID
- tissue uptake dose at 1 h (mouse, in vivo, iv, mice, i.v., 60 min after injection, mean (SD), read-out: Biodistribution of radioactivity, Kidney): 2.92 %ID
- tissue uptake dose at 1 h (mouse, in vivo, iv, mice, i.v., 60 min after injection, mean (SD), read-out: Biodistribution of radioactivity, Large-intestine): 0.03 %ID
- tissue uptake dose at 1 h (mouse, in vivo, iv, mice, i.v., 60 min after injection, mean (SD), read-out: Biodistribution of radioactivity, Liver): 0.2 %ID
- tissue uptake dose at 1 h (mouse, in vivo, iv, mice, i.v., 60 min after injection, mean (SD), read-out: Biodistribution of radioactivity, Lung): 0.08 %ID
- tissue uptake dose at 1 h (mouse, in vivo, iv, mice, i.v., 60 min after injection, mean (SD), read-out: Biodistribution of radioactivity, Muscle): 0.18 %ID
- tissue uptake dose at 1 h (mouse, in vivo, iv, mice, i.v., 60 min after injection, mean (SD), read-out: Biodistribution of radioactivity, Pancreas): 0.09 %ID
- tissue uptake dose at 1 h (mouse, in vivo, iv, mice, i.v., 60 min after injection, mean (SD), read-out: Biodistribution of radioactivity, Small-intestine): 0.07 %ID
- tissue uptake dose at 1 h (mouse, in vivo, iv, mice, i.v., 60 min after injection, mean (SD), read-out: Biodistribution of radioactivity, Spleen): 0.13 %ID
- tissue uptake dose at 3 h (mouse, in vivo, iv, mice, i.v., 180 min after injection, mean (SD), footnote b, read-out: Biodistribution of radioactivity, Stomach): 0.02 %ID
- tissue uptake dose at 3 h (mouse, in vivo, iv, mice, i.v., 180 min after injection, mean (SD), read-out: Biodistribution of radioactivity, Blood): 0.08 %ID
- tissue uptake dose at 3 h (mouse, in vivo, iv, mice, i.v., 180 min after injection, mean (SD), read-out: Biodistribution of radioactivity, Bone (Femur)): 15.4 %ID
- tissue uptake dose at 3 h (mouse, in vivo, iv, mice, i.v., 180 min after injection, mean (SD), read-out: Biodistribution of radioactivity, Brain): 0.02 %ID
- tissue uptake dose at 3 h (mouse, in vivo, iv, mice, i.v., 180 min after injection, mean (SD), read-out: Biodistribution of radioactivity, Heart): 0.03 %ID
- tissue uptake dose at 3 h (mouse, in vivo, iv, mice, i.v., 180 min after injection, mean (SD), read-out: Biodistribution of radioactivity, Kidney): 1 %ID
- tissue uptake dose at 3 h (mouse, in vivo, iv, mice, i.v., 180 min after injection, mean (SD), read-out: Biodistribution of radioactivity, Large-intestine): 0.11 %ID
- tissue uptake dose at 3 h (mouse, in vivo, iv, mice, i.v., 180 min after injection, mean (SD), read-out: Biodistribution of radioactivity, Liver): 0.13 %ID
- tissue uptake dose at 3 h (mouse, in vivo, iv, mice, i.v., 180 min after injection, mean (SD), read-out: Biodistribution of radioactivity, Lung): 0.05 %ID
- tissue uptake dose at 3 h (mouse, in vivo, iv, mice, i.v., 180 min after injection, mean (SD), read-out: Biodistribution of radioactivity, Muscle): 0.06 %ID
- tissue uptake dose at 3 h (mouse, in vivo, iv, mice, i.v., 180 min after injection, mean (SD), read-out: Biodistribution of radioactivity, Pancreas): 0.04 %ID
- tissue uptake dose at 3 h (mouse, in vivo, iv, mice, i.v., 180 min after injection, mean (SD), read-out: Biodistribution of radioactivity, Small-intestine): 0.05 %ID
- tissue uptake dose at 3 h (mouse, in vivo, iv, mice, i.v., 180 min after injection, mean (SD), read-out: Biodistribution of radioactivity, Spleen): 0.1 %ID
- F/B ratio (Femur:blood ratio) (mice, i.v., 10 min after injection, mean (SD)): 7.01 (0.56)
- F/B ratio (Femur:blood ratio) (mice, i.v., 60 min after injection, mean (SD)): 147.10 (71.25)
- F/B ratio (Femur:blood ratio) (mice, i.v., 180 min after injection, mean (SD)): 248.95 (170.64)
- Accumulation of radioactivity in bone (in words) (normal mice, i.v.): high accumulation and retention of radioactivity in bone

- tissue uptake dose at 10 min [1]: 2.09 %ID
- tissue uptake dose at 1 h [1]: 0.1 %ID
- tissue uptake dose at 3 h [1]: 0.01 %ID
- tissue uptake dose at 10 min [2]: 11 %ID
- tissue uptake dose at 1 h [2]: 11.8 %ID
- tissue uptake dose at 3 h [2]: 12.2 %ID
- tissue uptake dose at 10 min [3]: 0.05 %ID
- tissue uptake dose at 1 h [3]: 0.01 %ID
- tissue uptake dose at 3 h [3]: 0.01 %ID
- tissue uptake dose at 10 min [4]: 0.79 %ID
- tissue uptake dose at 1 h [4]: 0.08 %ID
- tissue uptake dose at 3 h [4]: 0.05 %ID
- tissue uptake dose at 10 min [5]: 13.4 %ID
- tissue uptake dose at 1 h [5]: 10.6 %ID
- tissue uptake dose at 3 h [5]: 6.59 %ID
- tissue uptake dose at 10 min [6]: 0.42 %ID
- tissue uptake dose at 1 h [6]: 0.18 %ID
- tissue uptake dose at 3 h [6]: 0.25 %ID
- tissue uptake dose at 10 min [7]: 0.46 %ID
- tissue uptake dose at 1 h [7]: 0.12 %ID
- tissue uptake dose at 3 h [7]: 0.08 %ID
- tissue uptake dose at 10 min [8]: 1.65 %ID
- tissue uptake dose at 1 h [8]: 0.13 %ID
- tissue uptake dose at 3 h [8]: 0.04 %ID
- tissue uptake dose at 10 min [9]: 0.78 %ID
- tissue uptake dose at 1 h [9]: 0.19 %ID
- tissue uptake dose at 3 h [9]: 0.02 %ID
- tissue uptake dose at 10 min [10]: 0.68 %ID
- tissue uptake dose at 1 h [10]: 0.13 %ID
- tissue uptake dose at 3 h [10]: 0.06 %ID
- tissue uptake dose at 10 min [11]: 0.37 %ID
- tissue uptake dose at 1 h [11]: 0.22 %ID
- tissue uptake dose at 3 h [11]: 0.15 %ID
- tissue uptake dose at 10 min [12]: 0.37 %ID
- tissue uptake dose at 1 h [12]: 0.06 %ID
- tissue uptake dose at 3 h [12]: 0.03 %ID
- tissue uptake dose at 10 min [13]: 0.29 %ID
- tissue uptake dose at 1 h [13]: 0.19 %ID
- tissue uptake dose at 3 h [13]: 0.29 %ID
- Clearance from the blood (in words) (mouse, in vivo, iv): rapid clearance from the blood
- Radioactivity in the kidneys (in words) (mouse, in vivo, iv): retained
Compound: O=C(O)CC[C@@H](NC(=O)[C@@H](CCC(=O)O)NC(=O)[C@@H](CCC(=O)O)NC(=O)[C@@H](CCC(=O)O)NC(=O)[C@@H](CCC(=O)O)NC(=O)[C@@H](CCC(=O)O)NC(=O)[C@@H](CCC(=O)O)NC(=O)[C@@H](CCC(=O)O)NC(=O)[C@@H](CCC(=O)O)NC(=O)[C@@H](CCC(=O)O)NC(=O)[C@@H](CCC(=O)O)NC(=O)[C@@H](CCC(=O)O)NC(=O)[C@@H](CCC(=O)O)NC(=O)[C@@H](CCC(=O)O)NC(=O)CN1CCN(CC(=O)O)CCN(CC(=O)O)CCN(CC(=O)O)CC1)C(=O)O [^67Ga-DOTA-(D-Glu)14, metal not drawn]
- Accumulation of radioactivity in bone (in words) (mouse, in vivo, iv): high accumulation and retention of radioactivity in bone
